# How the values were obtained:
# [1] = Quantification of amount of active in coating by GC; type: physicochemical; details: PVOH/active/SDS coating; for % Incorporated active (compared to theoretical maximum amount): theoretical maximum 25 wt. % of active
# Experimental: The coating is peeled off the PET backer and then placed in a petri-dish in a fume-hood overnight to allow any residual non-encapsulated active to evaporate. The following day, the delaminated coating is precisely weighed into a 20 mL GC vial. 5.0 grams of DI water is added, and the vial immediately sealed. The contents of the vial are gently swirled to dissolve the coating in the water, and at least 10 hours are allowed for the headspace to equilibrate with the aqueous phase. A headspace sample is then removed by syringe for injection into the GC column.
# [2] = at 25° C.; known value; cited from earlier work
# [3] = Vapor pressure and saturated headspace concentration of pure reference compound; type: physicochemical; details: for saturated headspace concentration of reference samples: pure compound 0.5 mL in vial, calculated from known vapor pressures at room temperature
# Experimental: The strips of coating are then placed inside GC headspace vials (20 mL). In some cases a droplet of water (0.10 mL) is added to the bottom of the vial (avoiding contact with the strip) before the vial is sealed, in order to generate an atmosphere of 100% relative humidity (RH).
# (§1) Analysis of Release of trans-2-hexenal or guaiacol from Coating into Headspace: A strip of approximately 13.6 cm^2 is cut from the middle of the coated PET sheet. The coating is peeled off the PET backer and then placed in a petri-dish in a fume-hood overnight to allow any residual non-encapsulated active to evaporate. A GC vial, 20 mL, with a screw-on septum-cap is prepared at 95% humidity by adding a mini plastic ultracentrifuge vial with the cap cut off containing approximately 0.20 g of saturated potassium nitrate (KNO3) solution, with a few grains of solid KNO3 added to maintain saturation. After allowing time (at least 2 hours) for the humidity in the vial to equilibrate, the strip of coating is added to the GC vial, and the vial immediately sealed. After allowing the desired amount of time for release of the active from the coating, a headspace sample is removed by syringe for injection into the GC column. The concentration in the Headspace is determined by comparing the GC Peak Area of the sample to the GC Peak Area of the headspace from a vial containing 0.5 mL of pure trans-2-hexenal, or guaiacol.
# [4] = Analysis of release of trans-2-hexenal or guaiacol from coating into headspace at 95% RH; type: physicochemical; details: PVOH coating strip, room temperature/95% RH
# Experimental: as §1
% Incorporated active (compared to theoretical maximum amount) [1],"saturated concentration in the headspace of reference vial ([3]; pure compound 0.50 mL in vial, calculated from known vapor pressure at 25° C.)",Absolute amount of active incorporated (wt. %) [1],Concentration of guaiacol in headspace (ppm) ([4]; 0.62 hours after strip inserted into GC vial),Concentration of guaiacol in headspace (ppm) ([4]; 1.2 hours),Concentration of guaiacol in headspace (ppm) ([4]; 1.75 hours),Concentration of guaiacol in headspace (ppm) ([4]; 3.52 hours),Concentration of guaiacol in headspace (ppm) ([4]; 23.75 hours),saturated headspace concentration of reference samples [3],Concentration of trans-2-hexenal in headspace (ppm) ([4]; 0.17 hours after strip inserted into GC vial),Concentration of trans-2-hexenal in headspace (ppm) ([4]; 0.70 hours),Concentration of trans-2-hexenal in headspace (ppm) ([4]; 1.25 hours),Concentration of trans-2-hexenal in headspace (ppm) ([4]; 1.78 hours),Concentration of trans-2-hexenal in headspace (ppm) ([4]; 2.33 hours),Concentration of trans-2-hexenal in headspace (ppm) ([4]; 2.87 hours),Concentration of trans-2-hexenal in headspace (ppm) ([4]; 3.42 hours),Concentration of trans-2-hexenal in headspace (ppm) ([4]; 4.52 hours),Concentration of trans-2-hexenal in headspace (ppm) ([4]; 17.77 hours),SMILES,vapor pressure [2]
75.0%,1224 ppm,,,,,,,,,,,,,,,,,"CCCCCCO [Formulation 1-Hexanol, 1-hexanol]",0.124 kPa
68.7%,,17.2% wt. %,76.17 ppm,81.90 ppm,80.20 ppm,82.55 ppm,89.52 ppm,145 ppm (V/V),,,,,,,,,,"COc1ccccc1O [Guaiacol, guaiacol]",
71.9%,,18.0% wt. %,,,,,,8685 ppm (V/V),350.60 ppm,589.45 ppm,1266.50 ppm,2036.63 ppm,3484.15 ppm,4541.25 ppm,6173.40 ppm,7357.28 ppm,6742.25 ppm,"CCC/C=C/C=O [Trans-2-hexenal, trans-2-hexenal]",

# Reference: patent US10220548B2, “Humidity activated formulation for volatile compounds” (AgroFresh, Inc., priority 2013, dated 2019)
